What was measured:
[1] = tested on: H-EMC-SS (Chondrosarcoma); assay: combination Emax (second highest fraction inhibited in the dose matrix, 72 h); higher = more inhibition; extreme values may be limits of the assay
Summary of the method: (§1)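 Cell lines grown in DMEM/F12 or RPMI with 10% FBS were plated in 1536-well plates and held 24 hours at 37°C, 5% CO2 before 72 hours of exposure to two-drug dose matrices, with DMSO typically at 0.2%. CellTiter-Glo 2.0 luminescence gave viability, which was converted to inhibition. Vehicle wells were set to 0 and blank wells to 1. Combination Emax is the second-highest inhibition in the matrix, and Bliss excess is the observed combination effect minus the expected EA + EB − EA·EB, where EA and EB are the single-agent effects.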

NB7 (Neuroblastoma) [2] = assay: as above
Summary of the method: as §1

[3] = tested on: JHH-7 (Hepatocellular Carcinoma); assay: as above
Summary of the method: as §1

[4] = tested on: OCUB-M (Breast Carcinoma); assay: as above
Summary of the method: as §1

[5] = tested on: SCC-9 (Oral Cavity Carcinoma); assay: as above
Summary of the method: as §1

GI-1 (Glioblastoma) [6] = assay: as above
Summary of the method: as §1

[7] = tested on: KINGS-1 (Low Grade Glioma); assay: as above
Summary of the method: as §1

[8] = tested on: LC4-1 (B-Lymphoblastic Leukemia); assay: as above
Summary of the method: as §1

[9] = tested on: HSC-2 (Oral Cavity Carcinoma); assay: as above
Summary of the method: as §1

[10] = tested on: VMRC-LCD (Lung Adenocarcinoma); assay: as above
Summary of the method: as §1

[11] = tested on: SNU-C1 (Colorectal Carcinoma); assay: as above
Summary of the method: as §1

EW-3 (Ewing's Sarcoma) [12] = assay: as above
Summary of the method: as §1

[13] = tested on: NCI-N87 (Gastric Carcinoma); assay: as above
Summary of the method: as §1

[14] = tested on: TGBC11TKB (Gastric Carcinoma); assay: as above
Summary of the method: as §1

[15] = tested on: OCUM-1 (Gastric Carcinoma); assay: as above
Summary of the method: as §1

[16] = tested on: H-EMC-SS (Chondrosarcoma); assay: Bliss excess, mean over the matrix (fraction); higher = more synergy
Summary of the method: as §1

NB7 (Neuroblastoma) [17] = assay: as above
Summary of the method: as §1

[18] = tested on: JHH-7 (Hepatocellular Carcinoma); assay: as above
Summary of the method: as §1

[19] = tested on: OCUB-M (Breast Carcinoma); assay: as above
Summary of the method: as §1

[20] = tested on: SCC-9 (Oral Cavity Carcinoma); assay: as above
Summary of the method: as §1

GI-1 (Glioblastoma) [21] = assay: as above
Summary of the method: as §1

[22] = tested on: KINGS-1 (Low Grade Glioma); assay: as above
Summary of the method: as §1

[23] = tested on: LC4-1 (B-Lymphoblastic Leukemia); assay: as above
Summary of the method: as §1

[24] = tested on: HSC-2 (Oral Cavity Carcinoma); assay: as above
Summary of the method: as §1

[25] = tested on: VMRC-LCD (Lung Adenocarcinoma); assay: as above
Summary of the method: as §1

[26] = tested on: SNU-C1 (Colorectal Carcinoma); assay: as above
Summary of the method: as §1

EW-3 (Ewing's Sarcoma) [27] = assay: as above
Summary of the method: as §1

[28] = tested on: NCI-N87 (Gastric Carcinoma); assay: as above
Summary of the method: as §1

[29] = tested on: TGBC11TKB (Gastric Carcinoma); assay: as above
Summary of the method: as §1

[30] = tested on: OCUM-1 (Gastric Carcinoma); assay: as above
Summary of the method: as §1
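Throughout, for Bliss excess, mean over the matrix: after 72 h of two-drug dosing.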

Row | SMILES | combination Emax [1] | combination Emax (NB7 (Neuroblastoma) [2]) | combination Emax [3] | combination Emax [4] | combination Emax [5] | combination Emax (GI-1 (Glioblastoma) [6]) | combination Emax [7] | combination Emax [8] | combination Emax [9] | combination Emax [10] | combination Emax [11] | combination Emax (EW-3 (Ewing's Sarcoma) [12]) | combination Emax [13] | combination Emax [14] | combination Emax [15] | Bliss excess [16] | Bliss excess (NB7 (Neuroblastoma) [17]) | Bliss excess [18] | Bliss excess [19] | Bliss excess [20] | Bliss excess (GI-1 (Glioblastoma) [21]) | Bliss excess [22] | Bliss excess [23] | Bliss excess [24] | Bliss excess [25] | Bliss excess [26] | Bliss excess (EW-3 (Ewing's Sarcoma) [27]) | Bliss excess [28] | Bliss excess [29] | Bliss excess [30]
1 | N#Cc1cnc(Nc2cc(NC[C@H]3CNCCO3)c(C(F)(F)F)cn2)cn1 [SRA737] + Nc1ccn([C@@H]2O[C@H](CO)[C@@H](O)C2(F)F)c(=O)n1 [Gemcitabine] (first compound max 10 µM, 7x7, partner max 0.3 µM) | 0.542 | 0.765 | 0.569 | 0.951 | 0.401 | 0.916 | 0.29 | 0.976 | 0.959 | 0.773 | 0.712 | 0.902 | 0.702 | 0.942 | 0.709 | -0.0056 | 0.0519 | 0.0691 | 0.0085 | 0.0211 | 0.0455 | -0.0208 | 0.113 | 0.059 | 0.0934 | -0.0175 | -0.0521 | -0.0415 | 0.0075 | -0.022
2 | N#Cc1cnc(Nc2cc(NC[C@H]3CNCCO3)c(C(F)(F)F)cn2)cn1 [SRA737] + C=CCn1c(=O)c2cnc(Nc3ccc(N4CCN(C)CC4)cc3)nc2n1-c1cccc(C(C)(C)O)n1 [AZD1775] (first compound max 10 µM, partner max 1 µM) | 0.354 | 0.849 | 0.543 | 0.637 | 0.326 | 0.91 | 0.412 | 0.891 | 0.584 | 0.778 | 0.789 | 0.501 | 0.828 | 0.919 | 0.53 | 0.0311 | 0.0949 | -0.0263 | 0.102 | 0.0078 | 0.0907 | 0.0035 | 0.0618 | 0.0573 | -0.0067 | 0.12 | 0.0086 | 0.0275 | 0.0401 | 0.0537
3 | C[C@@H](Nc1cc(F)cc(F)c1)c1cc(C(=O)N(C)C)cc2c(=O)cc(N3CCOCC3)oc12 [AZD8186] + C1CN(CCC1(C(=O)N[C@@H](CCO)C2=CC=C(C=C2)Cl)N)C3=NC=NC4=C3C=CN4 [AZD5363] (first compound max 10 µM, 7x7, partner max 10 µM) | 0.448 | 0.864 | 0.25 | 1 | 0.351 | 0.751 | 0.422 | 0.398 | 0.667 | 0.0947 | 0.586 | 0.239 | 0.629 | 0.126 | 0.513 | -0.0314 | -0.0059 | -0.0665 | 0.019 | -0.0225 | 0.0399 | -0.0307 | 0.027 | -0.0041 | -0.025 | -0.0605 | 0.0017 | 0.0125 | -0.0235 | -0.0101
4 | CS(=O)(=O)CCNCc1ccc(-c2ccc3ncnc(Nc4ccc(OCc5cccc(F)c5)c(Cl)c4)c3c2)o1 [Lapatinib] + Cn1cnc2c(F)c(Nc3ccc(Br)cc3Cl)c(C(=O)NOCCO)cc21 [Selumetinib] (first compound max 10 µM, 7x7, partner max 10 µM) | 0.317 | 0.119 | 0.344 | 0.551 | 0.988 | 0.368 | 0.337 | 0.954 | 0.782 | 0.207 | 0.785 | 0.405 | 0.991 | 0.527 | 0.95 | -0.0086 | -0.0408 | -0.0408 | -0.0507 | 0.0063 | 0.0054 | -0.0191 | 0.0675 | -0.0044 | -0.0369 | -0.0196 | -0.0017 | 0.0451 | 0.106 | -0.0148
5 | C[C@@H]1COCCN1c1cc(C2([S@](C)(=N)=O)CC2)nc(-c2ccnc3[nH]ccc23)n1 [AZD6738] + Nc1ccn([C@@H]2O[C@H](CO)[C@@H](O)C2(F)F)c(=O)n1 [Gemcitabine] (first compound max 10 µM, 7x7, partner max 0.3 µM) | 0.545 | 0.903 | 0.722 | 0.947 | 0.47 | 0.933 | 0.388 | 0.988 | 0.971 | 0.74 | 0.721 | 0.939 | 0.738 | 0.936 | 0.727 | 0.006 | 0.0831 | 0.085 | 0.028 | 0.024 | 0.0797 | -0.023 | 0.0935 | 0.0604 | 0.0526 | -0.0261 | -0.0176 | 0.0265 | -0.0137 | -0.0316
6 | C=CCn1c(=O)c2cnc(Nc3ccc(N4CCN(C)CC4)cc3)nc2n1-c1cccc(C(C)(C)O)n1 [AZD1775] + CCc1c2c(nc3ccc(O)cc13)-c1cc3c(c(=O)n1C2)COC(=O)[C@]3(O)CC [SN-38] (first compound max 1 µM, partner max 0.3 µM) | 0.561 | 0.97 | 0.43 | 0.931 | 0.557 | 0.988 | 0.495 | 0.934 | 0.952 | 0.591 | 0.646 | 0.872 | 0.8 | 0.914 | 0.65 | -0.0137 | 0.0564 | 0.0117 | 0.0926 | -0.0365 | -0.0412 | -0.0275 | -0.0519 | -0.0298 | -0.126 | -0.0837 | -0.135 | -0.0855 | -0.0338 | -0.0758
7 | Cc1cc2ncnn2cc1Nc1ncc2c(n1)n(C1CCOCC1)c(=O)n2C [AZD7648] + COc1cc([C@@H]2c3cc4c(cc3[C@@H](O[C@@H]3O[C@@H]5CO[C@@H](C)O[C@H]5[C@H](O)[C@H]3O)[C@H]3COC(=O)[C@H]23)OCO4)cc(OC)c1O [Etoposide] (first compound max 10 µM, 7x7, partner max 10 µM) | 0.524 | 0.909 | 0.642 | 0.885 | 0.481 | 0.907 | 0.516 | 1 | 0.866 | 0.555 | 0.275 | 0.855 | 0.697 | 0.0573 | 0.557 | 0.0506 | 0.0544 | 0.0547 | 0.0176 | 0.006 | 0.0946 | 0.061 | 0.0856 | 0.128 | 0.171 | -0.0254 | 0.0762 | -0.0062 | -0.0517 | 0.0899
8 | CN(CCO)CC[C@H](CSc1ccccc1)Nc1ccc(S(=O)(=O)NC(=O)c2ccc(N3CCC([C@@H](O)c4ccccc4-c4ccc(Cl)cc4)CC3)cc2)cc1S(=O)(=O)C(F)(F)F [AZD4320] + Nc1ccn([C@@H]2O[C@H](CO)[C@@H](O)C2(F)F)c(=O)n1 [Gemcitabine] (first compound max 1 µM, 7x7, partner max 0.3 µM) | 0.832 | 0.556 | 0.284 | 0.812 | 0.539 | 0.936 | 0.502 | 1 | 1 | 0.288 | 0.533 | 0.91 | 0.822 | 0.882 | 0.905 | 0.0342 | -0.0153 | -0.033 | 0.0471 | -0.0247 | 0.112 | -0.0068 | 0.0156 | 0.0613 | -0.0095 | -0.0482 | -0.0522 | -0.0058 | 0.0225 | 0.0262
